Source: patent US20250108038A1 (priority 2023, published 2025)
Read-outs that look alike come from different tables or passages of the source.

Experiments:
[1] = tested on: human red blood cells; assay: Hemolysis study in human blood; assay type: cell-based; conditions: 60 min, 37° C.; for % RBC lysis (hemolytic potential): test articles 25, 50, 100 μM, amphotericin B 1, 10, 30, 100 μM
Description: (§1) FIG. 4A. […] Compound I-19 in human blood. Red blood cells were isolated from whole blood and resuspended in PBS. […] (final concentrations 25, 50, and 100 μM) and the mixtures were incubated at 37° C. for 60 min. After the incubation, the samples were centrifuged and the absorbance of 100 μL of supernatant was read at 410 nm. % RBC lysis is expressed relative to 100% lysis control. Values represent mean+SEM of n=3 separate experiments.
FIG. 4B. Hemolytic Potential of Compound I-4 in human blood. Red blood cells were isolated from whole blood and resuspended in PBS. 190 μL of diluted RBC suspension and 10 μL of Compound I-4 solutions were mixed at 0 min. (final concentrations 25, 50, and 100 μM) and the mixtures were incubated at 37° C. for 60 min. After the incubation, the samples were centrifuged and the absorbance of 100 μL of supernatant was read at 410 nm. % RBC lysis is expressed relative to 100% lysis control. Values represent mean+SEM of n=3 separate experiments.
(§2) FIG. 4C. Hemolytic Potential of Amphotericin B in human blood (positive assay control). Red blood cells were isolated from whole blood and resuspended in PBS. 190 μL of diluted RBC suspension and 10 μl of amphotericin B solutions were mixed at 0 min. (final concentrations 1, 10, 30, and 100 μM) and the mixtures were incubated at 37° C. for 60 min. After the incubation, the samples were centrifuged and the absorbance of 100 μL of supernatant was read at 410 nm. % RBC lysis is expressed relative to 100% lysis control. Values represent mean+SEM of n=3 separate experiments.
(§3) To a clear 96-well V-bottom polystyrene plate, the test articles (10 μL) and the diluted RBCs (190 μL) from human or rat blood were mixed for final concentrations of 25, 50, and 100 μM. The reaction mixture was incubated at 37° C. for 60 min. Following the exposure period, the plates were centrifuged. After centrifugation, 70 μL of supernatant (without disturbing the pellet) was transferred to a clean and clear polystyrene flat bottomed 96-well plate and the absorbance of the sample at a single wavelength was measured using a BioTech Synergy H1 Plate Reader at a wavelength of 410 nm. The positive control for this assay was amphotericin B test at concentrations of 1, 10, 30, and 100 μM.

[2] = tested on: rat red blood cells; assay: Hemolysis study in rat blood; assay type: cell-based; conditions: 60 min, 37° C.; for % RBC lysis (hemolytic potential): test articles 25, 50, 100 μM, amphotericin B 1, 10, 30, 100 μM
Description: as §1, with “6A.” for “4A.”, “rat” for “human”
as §1, with “6B.” for “4A.”, “rat” for “human”, “μl” for “μL”
as §2, with “6C.” for “4C.”, “rat” for “human”, “μL” for “μl”
as §3

[3] = in vitro; conditions: for % Remaining / Aa/Ai Mean (N = 2) / T1/2: 2.0 μM; for T1/2: 60 min incubation
[4] = target: T1, MATE1 (Homo sapiens, UniProt Q96FL8); assay: Uptake transporter inhibition assay, MATE1 (metformin)
T1 sequence (Q96FL8 1-570): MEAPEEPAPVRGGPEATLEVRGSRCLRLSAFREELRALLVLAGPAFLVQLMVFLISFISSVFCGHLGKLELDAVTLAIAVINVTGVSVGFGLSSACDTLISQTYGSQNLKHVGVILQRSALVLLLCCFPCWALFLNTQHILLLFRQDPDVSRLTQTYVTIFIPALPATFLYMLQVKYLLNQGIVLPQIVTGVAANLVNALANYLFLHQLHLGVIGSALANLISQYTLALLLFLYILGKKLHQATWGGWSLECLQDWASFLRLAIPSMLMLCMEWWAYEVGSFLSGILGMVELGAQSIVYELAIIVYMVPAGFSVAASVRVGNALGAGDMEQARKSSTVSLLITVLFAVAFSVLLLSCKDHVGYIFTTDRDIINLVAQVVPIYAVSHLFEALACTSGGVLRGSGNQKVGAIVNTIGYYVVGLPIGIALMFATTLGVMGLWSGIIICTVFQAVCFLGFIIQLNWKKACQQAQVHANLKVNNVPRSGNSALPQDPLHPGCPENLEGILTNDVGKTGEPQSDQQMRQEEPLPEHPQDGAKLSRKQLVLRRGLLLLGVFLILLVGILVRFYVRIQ
Description: Uptake experiments were performed using HEK293 cells stably expressing the respective uptake transporters.
Cells were cultured at 37° C. in a humidified atmosphere containing 5% CO2 and were plated onto standard 96-well tissue culture plates.
Before the experiment, the medium was removed, and the cells were washed twice with 100 μL of pre-warmed (37° C.) assay buffer listed in Table 15. The cells were pre-incubated at 37° C. for 30 minutes in assay buffer containing the test article at appropriate concentrations (Table 16), appropriate solvents for solvent controls and the reference inhibitor for reference inhibitor wells. After the pre-incubation step solutions were removed. Uptake experiments were performed at 37° C. in 50 μL of assay buffer containing the probe substrate and the test article or solvent and controls.
After the experiment, cells were washed twice with 100 μL of appropriate cold buffer and lysed with 150 μL scintillation cocktail. Radiolabeled probe substrate transport was determined by liquid scintillation counting.
Uptake of the probe substrate in control cells provided background activity values for all data points.

[5] = 0.14 μM nominal, 0.08 μM NSB corrected, follow-up assay
[6] = 1.24 μM nominal, 0.79 μM NSB corrected, follow-up assay
[7] = 10.00 μM nominal, 6.50 μM NSB corrected
[8] = 11.11 μM nominal, 6.11 μM NSB corrected, follow-up assay
[9] = 33.33 μM nominal, 20.33 μM NSB corrected, follow-up assay
[10] = 100.00 μM nominal, 67.00 μM NSB corrected
[11] = 100.00 μM nominal, […] NSB corrected, follow-up assay
[12] = […] nominal, 2.37 μM NSB corrected, follow-up assay
[13] = 0.04 μM nominal, IC50 determination
[14] = 0.12 μM nominal, IC50 determination
[15] = 1.11 μM nominal, IC50 determination
[16] = 10.00 μM nominal, IC50 determination
[17] = 30.00 μM nominal, IC50 determination

Clc1ccc(C2(OCC3OCCO3)c3ccccc3C3=NCCN32)cc1 (stereo not drawn) [Compound I-19]
EC50 (% RBC lysis) [1]: outside the concentration range tested
% RBC lysis (hemolytic potential) [1]: no detectable hemolysis
EC50 (% RBC lysis) [2]: outside the concentration range tested
% RBC lysis (hemolytic potential) [2]: no detectable hemolysis
Compound A formed (Aa/Ai) ([3]; 0 min): 0.60
% Remaining ([3]; 0 min): 100%
Aa/Ai Mean (N = 2) ([3]; 0 min): 1.62
% Remaining ([3]; 5 min): 99.1%
Aa/Ai Mean (N = 2) ([3]; 5 min): 1.61
% Remaining ([3]; 15 min): 98.2%
Aa/Ai Mean (N = 2) ([3]; 15 min): 1.59
% Remaining ([3]; 30 min): 92.8%
Aa/Ai Mean (N = 2) ([3]; 30 min): 1.50
% Remaining ([3]; 60 min): 79.6%
Aa/Ai Mean (N = 2) ([3]; 60 min): 1.29
T1/2 [3]: 2.97 h
Compound A formed (Aa/Ai) ([3]; 5 min): 0.59
Compound A formed (Aa/Ai) ([3]; 15 min): 0.57
Compound A formed (Aa/Ai) ([3]; 30 min): 0.52
Compound A formed (Aa/Ai) ([3]; 60 min): 0.47
Relative inhibition [4, 5]: 5%
Relative transporter specific accumulation [4, 5]: 95.19 ± 6.24 % of control
Transporter specific accumulation [4, 5]: 468.00 ± 24.27 cpm
Relative inhibition [4, 6]: 19%
Relative transporter specific accumulation [4, 6]: 81.36 ± 3.96 % of control
Transporter specific accumulation [4, 6]: 400.00 ± 11.06 cpm
Relative inhibition [4, 7]: 54%
Relative transporter specific accumulation [4, 7]: 45.62 ± 4.36 % of control
Transporter specific accumulation [4, 7]: 173.67 ± 6.31 cpm
Relative inhibition [4, 8]: 63%
Relative transporter specific accumulation [4, 8]: 37.02 ± 4.79 % of control
Transporter specific accumulation [4, 8]: 182.00 ± 22.40 cpm
Relative inhibition [4, 9]: 88%
Relative transporter specific accumulation [4, 9]: 11.73 ± 1.78 % of control
Transporter specific accumulation [4, 9]: 57.67 ± 8.46 cpm
Relative inhibition [4, 10]: 101%
Relative transporter specific accumulation [4, 10]: −1.49 ± 0.63 % of control
Transporter specific accumulation [4, 10]: −5.67 ± 2.36 cpm
Relative inhibition [4, 11]: 104%
Relative transporter specific accumulation [4, 11]: −4.47 ± 0.42 % of control
Transporter specific accumulation [4, 11]: −22.00 ± 1.89 cpm
maximum inhibition of MATE1-mediated metformin accumulation ([4]; 2-concentration assay, Compound I-19 100 μM, Compound A 30 μM, Compound B 50 μM): completely inhibited
Maximum % inhibition ([4]; MATE1, HEK293 cells, metformin (10 μM), NIO: no inhibition observed): 104%
Relative inhibition [4, 12]: 30%
Relative transporter specific accumulation [4, 12]: 70.03 ± 4.41 % of control
Transporter specific accumulation [4, 12]: 344.33 ± 16.76 cpm
IC50 ([4]; follow-up assay, NSB-corrected concentrations for Compound I-19): 8.86 µM

OC1(c2ccc(Cl)cc2)c2ccccc2C2=NCCN21 (stereo not drawn) [Compound A, 5-(4-chlorophenyl)-2,3-dihydroimidazo[1,2-b]isoindol-5-ol, reference compound]
IC50 [4]: 3.87 µM
Relative transporter specific accumulation [4, 13]: 106.48 ± 4.34 % of control
Transporter specific accumulation [4, 13]: 471.00 ± 14.24 cpm
Relative transporter specific accumulation [4, 14]: 92.92 ± 5.23 % of control
Transporter specific accumulation [4, 14]: 411.00 ± 20.23 cpm
Relative transporter specific accumulation [4, 15]: 69.86 ± 2.64 % of control
Transporter specific accumulation [4, 15]: 309.00 ± 8.08 cpm
Relative transporter specific accumulation ([4]; 3.00 μM nominal): 54.89 ± 4.37 % of control
Transporter specific accumulation ([4]; 3.00 μM nominal): 181.33 ± 14.06 cpm
Relative transporter specific accumulation [4, 16]: 38.96 ± 1.63 % of control
Transporter specific accumulation [4, 16]: 172.33 ± 5.44 cpm
Relative transporter specific accumulation ([4]; 30.00 μM nominal): 20.18 ± 1.49 % of control
Transporter specific accumulation ([4]; 30.00 μM nominal): 66.67 ± 4.78 cpm
Relative transporter specific accumulation [4, 17]: 20.65 ± 0.69 % of control
Transporter specific accumulation [4, 17]: 91.33 ± 1.76 cpm
inhibition at 10 µM ([4]; human, Maximum % inhibition, MATE1, HEK293 cells, metformin (10 μM), NIO: no inhibition observed): 79%
inhibition at 0.04 μM ([4]; human, Relative inhibition, 0.04 μM nominal, IC50 determination): -6%
inhibition at 0.12 μM ([4]; human, Relative inhibition, 0.12 μM nominal, IC50 determination): 7%
inhibition at 1.11 μM ([4]; human, Relative inhibition, 1.11 μM nominal, IC50 determination): 30%
inhibition at 3 μM ([4]; human, Relative inhibition, 3.00 μM nominal): 45%
inhibition at 10 µM ([4]; human, Relative inhibition, 10.00 μM nominal, IC50 determination): 61%
inhibition at 30 μM ([4]; human, Relative inhibition, 30.00 μM nominal): 80%
inhibition at 30 μM ([4]; human, Relative inhibition, 30.00 μM nominal, IC50 determination): 79%

COCCOC1(c2ccc(Cl)cc2)c2ccccc2C2=NCCN21 (stereo not drawn) [Compound I-4]
EC50 (% RBC lysis) [1]: outside the concentration range tested
% RBC lysis (hemolytic potential) [1]: no detectable hemolysis
EC50 (% RBC lysis) [2]: outside the concentration range tested
% RBC lysis (hemolytic potential) [2]: no detectable hemolysis
Compound A formed (Aa/Ai) ([3]; 0 min): 0.57
% Remaining ([3]; 0 min): 100%
Aa/Ai Mean (N = 2) ([3]; 0 min): 3.25
% Remaining ([3]; 5 min): 95.0%
Aa/Ai Mean (N = 2) ([3]; 5 min): 3.08
% Remaining ([3]; 15 min): 99.6%
Aa/Ai Mean (N = 2) ([3]; 15 min): 3.23
% Remaining ([3]; 30 min): 90.8%
Aa/Ai Mean (N = 2) ([3]; 30 min): 2.95
% Remaining ([3]; 60 min): 83.6%
Aa/Ai Mean (N = 2) ([3]; 60 min): 2.72
T1/2 [3]: >3.12 h
Compound A formed (Aa/Ai) ([3]; 5 min): 0.66
Compound A formed (Aa/Ai) ([3]; 15 min): 0.58
Compound A formed (Aa/Ai) ([3]; 30 min): 0.52
Compound A formed (Aa/Ai) ([3]; 60 min): 0.42
